Assay results taken from patent US20050065041A1, “GELLED ACID” (SCHLUMBERGER TECHNOLOGY CORPORATION, priority 2003, published 2005).
In brackets after ≈: the same amount, converted by molar mass. Read-outs that look alike come from different tables or passages of the source.

Experiments:
[1] = Bioaccumulation (Log Pow), OECD Method 117; type: physicochemical; details: component in aqueous composition of Table 2
Description: (§1) The bioaccumulation testing was done according to Organization of Economic Co-operation and Development, Paris, (OECD) Method 117. The biodegradation tests were done according to OECD 306. The toxicity tests were done according to the protocol required for application in the North Sea as recommended by OSPAR (the Oslo Paris Commission) for completion of HOCNF (Harmonized Offshore Chemical Notification Format) requirements. The methods are those in effect as of August, 2003, and the MSDS data and public health, safety and environment data given below are as of August, 2003.

[2] = Diversion test in limestone cores; details: 65.5° C., SDA fluid 5% HCl
Procedure: Diversion: Tests were completed with one-inch diameter and 4 inch length cores of Indiana Limestone. The initial permeability of each was determined with 3% NaCl brine in both the production and treatment directions prior to treatment with the gelled acid fluid. Then the gelled fluid was pumped at a constant pressure of about […] in the treatment direction. The time for acid break-through was also recorded. All tests were completed at 65.5° C. and constant pressure. Three cores were used to test for diversion in each case; two cores were about 18 to about 24 md and 1 core was about 45 to about 60 md. The initial and final permeabilities were determined. After the tests, all cores were CT scanned, cross sectional view, to visualize the wormholing.

[3] = tested on: Scophthalamus maximus juvenile; assay: OSPAR/HOCNF aquatic toxicity test, Scophthalamus maximus juvenile; type: in vivo
Description: as §1
(§2) However, in addition to the excellent toxicity results shown in Table 2, in further OSPAR tests, 2-butanoneoxime had NOEC (No Observable Effect Concentration) values of 8.9 mg/L for Acartia tonsa (48 hours), 1000 mg/L for Scophthalamus maximus juvenile (96 hours), and 99.7 mg/L for Skeletonema Costatum (72 hours), and the 15 day BOD was 6.5%.

[4] = tested on: Skeletonema Costatum; assay: OSPAR/HOCNF aquatic toxicity test, Skeletonema Costatum; type: in vivo
Description: as §1, §2

[5] = OSPAR/HOCNF aquatic toxicity test, Acartia tonsa; type: in vivo; details: Acartia tonsa, in vivo; 48 hr; read-out: Acartia tonsa LC 50 48 hr
Description: as §1, §2

[6] = tested on: Acartia tonsa; assay: OSPAR/HOCNF aquatic toxicity test, Acartia tonsa; type: in vivo
Description: as §1, §2

[7] = MSDS and public data as of August, 2003; cited from earlier work
[8] = tested on: Abra alba; assay: OSPAR/HOCNF toxicity test, Abra alba; type: in vivo; details: printed in the column headed Scophthalamus maximus juvenile EC 50 96 hr
Description: as §1

[9] = Biodegradation (BOD), OECD 306; details: 28 day
Description: as §1

[10] = Acid spending tests with residue analysis at 121° C.; details: 6.89 MPa, six hours
[11] = Iron reduction as a function of HCl spending; details: reagent 2.00%
Procedure: Iron Reduction Performance: All solutions were prepared as indicated using about 0.5% by volume of a concentrate having about 40 weight percent FeCl3, and analyses were done with a HACH 2000 calorimeter, obtained from Hach Company, Loveland, Colo. Standard analyses were as described in the “Water Analyses Handbook,” Hach Company. Total iron was obtained by the FerroZine procedure by form ation of a purple complex observable at 562 nm. The ferrous iron content was determined by the phenanthroline complex procedure determined at 510 nm. An orange complex is formed which is proportional to the iron content. For each analysis, samples of the test solution were taken and diluted 1:100 with water and the appropriate, premeasured reagent pillows were added to the solution. Measurements were determined calorimetrically employing standards for the analyses. For ferrous content, analyses were made quickly to prevent oxidation due to air. Total iron required 5 minutes reaction time. If ferric content was needed, the content was obtained by difference.
The selected iron reducing agent should […] reduce the ferric iron in acid solutions. […] For each of these tests 2.0% of an approximately 10 to 12% aqueous solution or reducing agent or reducing agent precursor was evaluated. This represents approximately twice the concentration to adequately reduce the quantity of Fe^+3 present.

[12] = HPLC Method OECD 117; cited from earlier work
[13] = OECD 306B, seawater; cited from earlier work
[14] = Iron reduction performance: effect of pH and reagent concentration
[15] = Core 2 (highest permeability core)
[16] = Test 2: 90% Spent 15% HCl + 0.50% FeCl3
[17] = Test 3: 95% Spent 15% HCl + 0.50% FeCl3
[18] = Test 4: 99% Spent 15% HCl + 0.50% FeCl3
[19] = Test 5: 99.5% Spent 15% HCl + 0.50% FeCl3
[20] = Test 1: DI water + 0.50% FeCl3 (pH 2.03), reagent concentration 0.50%
[21] = Test 1: DI water + 0.50% FeCl3 (pH 2.03), reagent concentration 1.00%
[22] = Test 1: DI water + 0.50% FeCl3 (pH 2.03), reagent concentration 1.25%
[23] = Test 1: DI water + 0.50% FeCl3 (pH 2.03), reagent concentration 1.50%
[24] = Test 1: DI water + 0.50% FeCl3 (pH 2.03), reagent concentration 2.00%
[25] = Test 2: 15% HCl + 0.50% of a 40% FeCl3 Aqueous Solution, reagent concentration 0.50%
[26] = Test 2: 15% HCl + 0.50% of a 40% FeCl3 Aqueous Solution, reagent concentration 1.00%
[27] = Test 2: 15% HCl + 0.50% of a 40% FeCl3 Aqueous Solution, reagent concentration 1.50%
[28] = Test 2: 15% HCl + 0.50% of a 40% FeCl3 Aqueous Solution, reagent concentration 2.00%
[29] = Test 3: 50% water/CaCl2 + 10% 15% HCl + 0.50% FeCl3, reagent concentration 0.50%
[30] = Test 3: 50% water/CaCl2 + 10% 15% HCl + 0.50% FeCl3, reagent concentration 1.00%
[31] = Test 3: 50% water/CaCl2 + 10% 15% HCl + 0.50% FeCl3, reagent concentration 1.50%
[32] = Test 3: 50% water/CaCl2 + 10% 15% HCl + 0.50% FeCl3, reagent concentration 2.00%
[33] = Test 2: 15% HCl + 0.50% of a 40% FeCl3 Aqueous Solution, reagent concentration 1.25%
[34] = Test 2: 15% HCl + 0.50% of a 40% FeCl3 Aqueous Solution, reagent concentration […]
[35] = Test 3: 50% water/CaCl2 + 10% 15% HCl + 0.50% FeCl3, reagent concentration 1.25%

CCC(C)=NO [2-Butanone oxime]
chromatographic logP ([1]; octanol/water): 1.38 | Final Permeability ([2]; Core 1): 34.1 md | Final Permeability [2, 15]: >5000 md | Final Permeability ([2]; Core 3): 49.6 md | EC50 ([3]; 96 h, read-out: Scophthalamus maximus juvenile EC 50 96 hr): > 3000 µg/mL | NOEC (No Observable Effect Concentration) Scophthalamus maximus juvenile ([3]; 96 hours): 1000 mg/L | NOEC (No Observable Effect Concentration) Skeletonema Costatum ([4]; 72 hours): 99.7 mg/L | EC50 ([4]; Skeletonema costatum, 72 h, read-out: Skeletonema Costatum EC50 72 hr): 470 µg/mL (≈ 5.39 mM) | LC50 at 48 h [5]: 6930 µg/mL (≈ 79.6 mM) | NOEC (No Observable Effect Concentration) Acartia tonsa ([6]; 48 hours): 8.9 mg/L

NN [Hydrazine]
hazard rating [7]: toxic to aquatic species

Cl.NN [Hydrazinium hydrochloride]
Abra alba toxicity [8]: 96 mg/L | Bioaccumulation Log Pow [1]: <0 | Biodegradability BOD28 day [9]: 84% | Residue Remaining [10]: 0.278 g | Final Permeability ([2]; Core 1): 14.1 md | Final Permeability [2, 15]: >5000 md | Final Permeability ([2]; Core 3): 6.8 md | hazard rating [7]: toxic by all routes | Skeletonema Costatum EC50 24 hr ([4]; 24 hr): 0.38 mg/L | Acartia tonsa LC 50 48 hr ([6]; 48 hr): 0.37 mg/L

CCN(O)CC [Diethylhydroxylamine, Diethylhydroxyl amine]
Iron % reduced ([11]; Test 1: 15% HCl + 0.50% FeCl3): 54.4% | Iron Content Fe+2 ([11]; Test 1: 15% HCl + 0.50% FeCl3): 620 mg/L | Iron % reduced [11, 16]: 66.4% | Iron Content Fe+2 [11, 16]: 750 mg/L | Iron % reduced [11, 17]: 74.4% | Iron Content Fe+2 [11, 17]: 930 mg/L | Iron % reduced [11, 18]: 88.8% | Iron Content Fe+2 [11, 18]: 710 mg/L | Iron % reduced [11, 19]: 89.0% | Iron Content Fe+2 [11, 19]: 650 mg/L | bioaccumulation (Log Pow), literature value [12]: 0.43 | biodegradation [13]: less than 60% | hazard rating [7]: harmful and an irritant | Iron % reduced [14, 20]: 65.7% | Iron Content Fe+2 [14, 20]: 670 mg/L | Iron % reduced [14, 21]: 73.5% | Iron Content Fe+2 [14, 21]: 750 mg/L | Iron % reduced [14, 22]: 75.5% | Iron Content Fe+2 [14, 22]: 770 mg/L | Iron % reduced [14, 23]: 84.3% | Iron Content Fe+2 [14, 23]: 860 mg/L | Iron % reduced [14, 24]: 89.2% | Iron Content Fe+2 [14, 24]: 910 mg/L | Iron % reduced [14, 25]: 34.3% | Iron Content Fe+2 [14, 25]: 350 mg/L | Iron % reduced [14, 26]: 48.0% | Iron Content Fe+2 [14, 26]: 490 mg/L | Iron % reduced [14, 27]: 52.9% | Iron Content Fe+2 [14, 27]: 540 mg/L | Iron % reduced [14, 28]: 83.3% | Iron Content Fe+2 [14, 28]: 850 mg/L | Iron % reduced [14, 29]: 25% | Iron Content Fe+2 [14, 29]: 310 mg/L | Iron % reduced [14, 30]: 42% | Iron Content Fe+2 [14, 30]: 520 mg/L | Iron % reduced [14, 31]: 47% | Iron Content Fe+2 [14, 31]: 590 mg/L | Iron % reduced [14, 32]: 61% | Iron Content Fe+2 [14, 32]: 760 mg/L

NNC(=O)NN [Carbohydrazide]
Iron % reduced ([11]; Test 1: 15% HCl + 0.50% FeCl3): 1.8% | Iron Content Fe+2 ([11]; Test 1: 15% HCl + 0.50% FeCl3): 20 mg/L | Iron % reduced [11, 16]: 8.0% | Iron Content Fe+2 [11, 16]: 90 mg/L | Iron % reduced [11, 17]: 1.6% | Iron Content Fe+2 [11, 17]: 20 mg/L | Iron % reduced [11, 18]: 20.0% | Iron Content Fe+2 [11, 18]: 160 mg/L | Iron % reduced [11, 19]: 12.3% | Iron Content Fe+2 [11, 19]: 90 mg/L | hazard rating [7]: harmful and an irritant | Iron % reduced [14, 20]: 27.3% | Iron Content Fe+2 [14, 20]: 390 mg/L | Iron % reduced [14, 21]: 38.5% | Iron Content Fe+2 [14, 21]: 550 mg/L | Iron % reduced [14, 22]: 46.9% | Iron Content Fe+2 [14, 22]: 670 mg/L | Iron % reduced [14, 25]: 0.8% | Iron Content Fe+2 [14, 25]: 10 mg/L | Iron % reduced [14, 26]: 12.2% | Iron Content Fe+2 [14, 26]: 160 mg/L | Iron % reduced [14, 33]: 29.8% | Iron Content Fe+2 [14, 33]: 390 mg/L | Iron % reduced [14, 34]: 0.8% | Iron Content Fe+2 [14, 34]: 10 mg/L | Iron % reduced [14, 29]: 13% | Iron Content Fe+2 [14, 29]: 160 mg/L | Iron % reduced [14, 30]: 15% | Iron Content Fe+2 [14, 30]: 190 mg/L | Iron % reduced [14, 35]: 15% | Iron Content Fe+2 [14, 35]: 190 mg/L | EC50 ([4]; Skeletonema costatum, 72 h; read-out: Skeletonema Costatum EC50 72 hr): 56.7 µg/mL (≈ 0.629 mM)
